# Assay results reported in PMC8538783, “Green Oxidation of Amines by a Novel Cold-Adapted Monoamine Oxidase MAO P3 from Psychrophilic Fungi Pseudogymnoascus sp. P3” (Molecules, 2021).
# Several values for one entry are separate records, joined by “and”; a condition that tells them apart may be missing. Equal entries are not always repeated. Where two headings read alike, the source gives them in different places.
# What was measured:
# native MAO N = details: cited from earlier work
# MAO P3 [1] = assay: Effect of extra FAD in the reaction mixture on MAO P3 activity; format: biochemical, Pseudogymnoascus sp. P3; details: 0.2 mM FAD in reaction mixture, compared to holoenzyme without supplementation of FAD
# Experimental: (§1) The activity of MAO P3 was measured by a colorimetric method which is based on the formation of orange-brownish tetraguaiacol in the presence of H2O2 and peroxidase (insert in Figure 2A). The reaction mixture contained 0.5 mL of the enzyme sample, 0.25 mL of 10 mM potassium phosphate buffer pH 7.2, 0.25 mL of 20 mM amine substrate (to identify a potential MAO producer, primary–n-butylamine, and secondary–6,6-dimethyl-3-azabicyclohexane, amines were used), 0.02 mL of peroxidase (90 U/mL), and 0.4 mL of 0.02 M guaiacol (all reagents from MerckMillipore, Burlington, MA, USA). The reaction mixture was incubated at 30 °C for 30 min.
# Reconstruction of flavoprotein MAO P3 was carried out in 10 mM potassium phosphate buffer pH 7.2 in a total volume of 5 mL, with different conditions of: FAD concentration (5, 10, 15, 20, 25, and 50 μM), temperature (5, 10, 15, 20, 25, and 30 °C), and time of incubation (from 10 min to 60 min). After incubation, extra FAD was removed by centrifugation at 5000 rpm, 4 °C, 20 min in Centricon concentrators of MWCO of 10 kDa (MerckMillipore, Burlington, MA, USA). The absorption spectrum was measured on a flat-bottom 96-well plate on a MultiScanGo plate reader (ThermoFisher Scientific, Waltham, MA, USA).
# MAO P3 [2] = assay: Substrate specificity (Vmax, Km) of purified MAO P3, GC-MS; format: biochemical, Pseudogymnoascus sp. P3
# Experimental: (§2) Substrate specificity of MAO P3 was examined towards sixteen amine substrates (listed in Table 3) that differed in the number of carbons and various substitutions. Bioconversion was carried out in 5 mL glass tubes (Schott, Germany), where the total volume of the reaction was 2.5 mL and was comprised of 1 mL of MAO P3 (1 U/mL), where the cell-free extracts were used for the initial oxidation screening and the purified enzyme, for substrate specificity. An amount of 0.75 mL of a substrate (in the range of concentrations between 10 and 100 mM) was resuspended in 0.1 M potassium phosphate pH 7.2, and 0.75 mL of 10 mM potassium phosphate buffer pH 7.2. Initial oxidation screening was carried out for 4 h at 30 °C, 810 rpm. The substrate specificity was measured at 30 °C; reactions were carried out for 5 h, 810 rpm. In order to analyze the products of the bioconversion, samples were first neutralized by the addition of 0.25 mL of 1 M NaOH. An amount of 0.5 mL of dichloromethane was added to samples and incubated at room temperature with shaking for 1 min. The samples were centrifuged for 5 min, 5000 rpm, 4 °C. The organic phase was collected for the gas chromatography-mass spectrometry (GC-MS) analysis. The Km values were calculated based on […] curves (see the Supplementary Materials).
# (§3) GC-MS analyses were carried out on a Pegasus 4D (LECO, USA) apparatus, equipped with an Agilent 6890N gas chromatograph coupled with a time-of-flight mass spectrometer (LECO, Saint Joseph, MI, USA). Samples were injected with the GerstelMultiPurpose sampler (MPS 2). The GC was fitted with a BPX5 capillary column of 30 m × 0.25 mm × 0.25 µm (SGE). Helium was used as a carrier gas with a flow rate of 1.5 mL/min. The injector temperature was held at 250 °C. The oven temperature was initially held at 40 °C for 2 min, ramped up to 200 °C by 10 °C/min; the total run time was 20 min. The detector was operated in EI mode with the transfer line maintained at 280 °C. All substrates were purchased from MerckMillipore, USA, and quantified by GC analysis based on their peak areas and calibration curves prepared for each individual. GC-MS spectra are presented in the Supplementary Materials.
# Method S3. Determination of Km and Vmax values based on Lineweaver-Burk curves
# The double-reciprocal curve was create based on the inverse initial velocity as a function of the inverse substrate
# concentration. Curves were created for each amine substrate (Fig. S2), based on the results of GC-MS analysis (Paragraph
# Figure S4. The double-reciprocal curves for MAO P3 amines substrates: A. 3-azabicyclo[3.3.0]octane;
# B. hexamethyleneimine; C. 6,6-dimethyl-3-azabicyclohexane; D. cyclopentylamine; E. α-methylbenzylamine;
# F. pyrrolidine; G. sec-butylamine; H. indoline.
# (1 picture or pasted object on this page, not shown here)
# MAO P3 [3] = assay: Initial oxidation screening: bioconversion of amine substrates by cell-free extract, GC-MS; format: biochemical, Pseudogymnoascus sp. P3; details: for Rate of Oxidation: 10 mM substrate, 10 mM potassium phosphate buffer pH 7.2, cell-free intracellular extract of P3 strain, 4 h at 30 °C, relative to compound 9 = 100%
# Experimental: as §2
# as §3, with “Samples” for “GC-MS analyses were carried out on a Pegasus 4D (LECO, USA) apparatus, equipped with an Agilent 6890N gas chromatograph coupled with a time-of-flight mass spectrometer (LECO, Saint Joseph, MI, USA). Samples”, “The GC was fitted with a BPX5 capillary column of 30 m × 0.25 mm × 0.25 µm (SGE).” left out
# MAO P3 [4] = assay: as above; format: biochemical, Pseudogymnoascus sp. P3; details: 24 h of incubation at 30 °C with shaking
# MAO = assay: Colorimetric MAO activity assay of intracellular protein extract of P3 strain; format: biochemical, Pseudogymnoascus sp. P3; details: 30 °C, 30 min
# Experimental: as §1
# The absorbance of the samples was measured at 436 nm on the UV/visible spectrophotometer (UV-1800 Shimatdsu, Kyoto, Japan). A unit of enzyme activity was defined as the amount of enzyme that catalyzes the formation of 1.0 μmol of H2O2 per min.
# Figure 2 MAO biosynthesis in 14 psychrophilic fungi strains. The activity was measured towards a primary amine (n-butylamine) and a secondary amine (6,6-dimethyl-3-azabicyclohexane), for each substrate. The reaction was carried out at 30 °C for 30 min with continuous shaking in 10 mM potassium phosphate buffer […]. (A) Activity after the growth in the induction medium, without inoculation from a solid culture; insert: scheme of the measurement of MAO activity in psychrophilic fungi strains; absorbance of tetraguaiacol is measured at 436 nm. (B) Activity after the growth in the induction medium, with inoculation from a solid culture.
# MAO N D5 = system: MAO N D5; parameters: method as in PMID 20146293; details: recombinant MAO N D5; cited from earlier work
# MAO P3 [5] = assay: Inhibition analysis of MAO P3 by clorgyline, colorimetric guaiacol/peroxidase assay; format: biochemical, Pseudogymnoascus sp. P3; details: preincubated 30 min at 30 °C; substrate 6,6-dimethyl-3-azabicyclohexane
# Experimental: The enzyme was preincubated with different concentrations (from 0.1 to 10^−8 mM) of clorgyline (MerckMillipore, Burlington, MA, USA) for 30 min at 30 °C. MAO P3 activity was measured according to the above-mentioned procedure. Clorgyline solution (1 mM) was prepared in 10 mM potassium phosphate buffer pH 7.2.
# MAO A = system: MAO A; parameters: method as in PMID 11134050; details: cited from earlier work
# Pseudogymnoascus sp. P3 = format: cell-based
# Experimental: The 125 mL cultures were inoculated from the glycerol stocks. The strains were cultured at 20 °C for 14 days with shaking at 100 rpm in 0.5 L flasks. The growth medium was composed of 3% (w/v) glucose, 0.1% (w/v) KH2PO4, 0.05% (w/v) MgSO4, 0.05% (w/v) KCl, and 0.1% (w/v) NaNO3, which was replaced by 0.1% (v/v) of n-butylamine (MAO inducer) in the induction medium. The concentration of n-butylamine was optimized (tested concentrations: 0.01, 0.03, 0.05, 0.10, 0.15, 0.20, and 0.50%) to maximize the biosynthesis of MAO. The mycelium was collected by filtration, wet mass was weighed and used for further experiments.
# as §1
# [6] = purified MAO P3 1 U/mL, 0.1 M potassium phosphate buffer pH 7.2, 30 °C
# [7] = induction medium inoculated from glycerol stock (no solid preculture)
# [8] = inoculation from solid culture (7 days, 20 °C)
smiles,measurement,setting,value
NCCc1ccccc1 [2-phenethylamine],Km,native MAO N,100 µM
"Cc1cc2nc3c(=O)[nH]c(=O)nc-3n(C[C@H](O)[C@H](O)[C@H](O)COP(=O)(O)OP(=O)(O)OC[C@H]3O[C@@H](n4cnc5c(N)ncnc54)[C@H](O)[C@@H]3O)c2cc1C [FAD, flavin adenine dinucleotide]",change of MAO P3 activity,MAO P3 [1],increased two-fold
"CCC(C)N (stereo not drawn) [Substrate 1, sec-butylamine]",Km,MAO P3 [2]; [6],18000 µM
same,Vmax,MAO P3 [2]; [6],0.17 mM/h
same,Rate of Oxidation,MAO P3 [3],29%
"NC1CCCC1 [Substrate 2, cyclopentylamine]",Km,MAO P3 [2]; [6],8220 µM
same,Vmax,MAO P3 [2]; [6],0.47 mM/h
same,Rate of Oxidation,MAO P3 [3],31%
"C1CCNC1 [Substrate 3, pyrrolidine]",Km,MAO P3 [2]; [6],14300 µM
same,Vmax,MAO P3 [2]; [6],0.16 mM/h
same,Rate of Oxidation,MAO P3 [3],36%
"CN1CCCC1 [Substrate 4, 1-methylpyrrolidine]",conversion by MAO P3 after prolonged incubation (in words),MAO P3 [4],unconverted
same,oxidation/conversion by MAO P3 (in words),MAO P3 [3],no activity
same,Rate of Oxidation,MAO P3 [3],0%
"C1CCCNCC1 [Substrate 6, hexamethyleneimine]",Km,MAO P3 [2]; [6],2640 µM and 2560 µM
same,Vmax,MAO P3 [2]; [6],0.72 mM/h
same,Rate of Oxidation,MAO P3 [3],30%
"O=C1NC2C=CC1C2 (stereo not drawn) [Substrate 7, 2-azabicyclo[2.2.1]hept-5-en-3-one]",Rate of Oxidation,MAO P3 [3],0%
"c1ccncc1 [Substrate 8, pyridine]",Rate of Oxidation,MAO P3 [3],0%
"CC1(C)C2CNCC21 (stereo not drawn) [Substrate 9, 6,6-dimethyl-3-azabicyclo[3.1.0]hexane]",MAO activity towards the amine,MAO; [7],959 ± 7.2 U/L
same,MAO activity towards the amine,MAO; [8],1470 ± 10.6 U/L
same,Km,MAO P3 [2]; [6],2400 µM
same,Vmax,MAO P3 [2]; [6],1.1 mM/h
same,Rate of Oxidation,MAO P3 [3],100%
"C1CC2CNCC2C1 (stereo not drawn) [Substrate 10, 3-azabicyclo[3.3.0]octane]",rate of initial oxidation,MAO N D5,16%
same,Km,MAO P3 [2]; [6],10400 µM
same,Vmax,MAO P3 [2]; [6],0.24 mM/h
same,Rate of Oxidation,MAO P3 [3],67%
"C1CC[C@H]2CNC[C@H]2C1 [Substrate 11, cis-8-azabicyclo[4.3.0]nonane]",conversion by MAO P3 after prolonged incubation (in words),MAO P3 [4],unconverted
same,rate of initial oxidation,MAO N D5,19%
same,Rate of Oxidation,MAO P3 [3],0%
"c1ccc2c(c1)CCN2 [Substrate 12, indoline]",Km,MAO P3 [2]; pH 7.2,20400 µM
same,Vmax,MAO P3 [2]; [6],0.14 mM/h
same,Rate of Oxidation,MAO P3 [3],9%
"NCCN1CCCC1 [Substrate 13, 1-(2-aminoethyl)pyrrolidine]",conversion by MAO P3 after prolonged incubation (in words),MAO P3 [4],unconverted
same,oxidation/conversion by MAO P3 (in words),MAO P3 [3],no activity
same,Rate of Oxidation,MAO P3 [3],0%
"NC(c1ccccc1)c1ccccc1 [Substrate 14, benzylhydrylamine]",conversion by MAO P3 after prolonged incubation (in words),MAO P3 [4],unconverted
same,oxidation/conversion by MAO P3 (in words),MAO P3 [3],not able to oxidize
same,Rate of Oxidation,MAO P3 [3],0%
"NCCCCN [Substrate 15, putrescine]",oxidation/conversion by MAO P3 (in words),MAO P3 [3],not able to convert
same,Rate of Oxidation,MAO P3 [3],0%
"NCCCCNCCCN [Substrate 16, spermidine]",oxidation/conversion by MAO P3 (in words),MAO P3 [3],not able to convert
same,Rate of Oxidation,MAO P3 [3],0%
CCCCCN [amylamine],kcat,native MAO N,16.67 s⁻¹
NCc1ccccc1 [benzylamine],Km,native MAO N,240 µM
same,kcat,native MAO N,6.18 s⁻¹
C#CCN(C)CCCOc1ccc(Cl)cc1Cl [clorgyline],IC50,MAO P3 [5],18 nM
same,IC50,MAO A,1.2 nM
same,low concentration that inhibits MAO A,MAO A,10^−8 M
CCCCCCN [hexylamine],Km,native MAO N,200 µM
CCCCN [n-butylamine],MAO activity towards the amine,MAO; [7],910 ± 4.8 U/L
same,MAO activity towards the amine,MAO; [8],1350 ± 10.5 U/L
same,Km,native MAO N,600 µM
same,effect on the psychrophilic strains,Pseudogymnoascus sp. P3,acted deadly
same,Relative Activity of MAO P3,Pseudogymnoascus sp. P3; 0.01% n-butylamine in induction medium,6.4 ± 0.31%
same,Relative Activity of MAO P3,Pseudogymnoascus sp. P3; 0.03% n-butylamine in induction medium,19.9 ± 0.31%
same,Relative Activity of MAO P3,Pseudogymnoascus sp. P3; 0.05% n-butylamine in induction medium,30.7 ± 0.20%
same,Relative Activity of MAO P3,Pseudogymnoascus sp. P3; 0.10% n-butylamine in induction medium,100.0%
same,Relative Activity of MAO P3,Pseudogymnoascus sp. P3; 0.15% n-butylamine in induction medium,45.9 ± 0.34%
same,Relative Activity of MAO P3,Pseudogymnoascus sp. P3; 0.20% n-butylamine in induction medium,9.6 ± 0.20%
same,Relative Activity of MAO P3,Pseudogymnoascus sp. P3; 0.50% n-butylamine in induction medium,0.0%
CCCN [propylamine],Km,native MAO N,1600 µM
